This experiment has as its system human corneal epithelial cells (HCE-T). The experiment in a line: Adhesion of human corneal epithelial cell to extracellular matrix (collagen type IV coated plate). It counts as cell-based. Conditions: polypeptide 100 μg/mL, 37° C. 25 min. As for the experimental part: An extracellular matrix solution (10 μg/mL, collagen type IV: Becton, Dickinson and Company, catalog No. 354245) was added to a 96 well plate (Iwaki Glass Company, Limited, catalog No. 3860-096). The solution was incubated at 37° C. for 1 hr to coat the plate with the extracellular matrix. After the redundant extracellular matrix solution was removed, 0.1% BSA solution (Sigma-Aldrich Co., catalog No. A3803) was added to block the region not coated with the extracellular matrix. Successively, the BSA solution was removed and the plate was washed twice with PBS, and polypeptides 1-4 (concentration 100 μg/mL) synthesized in Example 1 (Pyr Lac50-83) and Comparative Examples 1-3 (Lac50-83, Pyr Lac50-94, Lac50-94), and negative control polypeptide (Lac24-56, Lac50-65) were added by 50 μl, per well. […]
Thereafter, the cells were fixed with 10% neutral buffered formaldehyde liquid (NACALAI TESQUE, INC., catalog No. 37152-51), and stained with 1% crystal violet staining solution (Sigma-Aldrich Co., catalog No. C3886). The image of the stained cells was uploaded using an inverted system microscope (Olympus Corporation, IX71), and the area of the adhered cells was measured using Image-Pro Plus Ver. […]

Non-standard residues stand in square brackets, D forms with d. No end group written: not given here. pGlu = O=C1CC[C@@H](C(=O)O)N1

For the substance “Pyr Gly Thr Ala Lys Val Thr Ser Ser Arg Gln Glu Leu Asn Pro Leu Lys Ser Ile Val Glu Lys Ser Ile Leu Leu Thr Glu Gln Ala Leu Ala Lys Ala ([pGlu]GTAKVTSSRQELNPLKSIVEKSILLTEQALAKA; listed as Homo sapiens) [polypeptide 1, pyro-modified partial peptide of lacritin]”, the “cell adhesion promoting effect (cell adhesion rate against that without addition of polypeptide as 100%)” value is “confirmed to have an activity to promote cell adhesion”.
“Pyr Gly Thr Ala Lys Val Thr Ser Ser Arg Gln Glu Leu Asn Pro Leu Lys Ser Ile Val Glu Lys Ser Ile Leu Leu Thr Glu Gln Ala Leu Ala Lys Ala Gly Lys Gly Met His Gly Gly Val Pro Gly Gly ([pGlu]GTAKVTSSRQELNPLKSIVEKSILLTEQALAKAGKGMHGGVPGG; listed as Homo sapiens) [polypeptide 3]”: the “cell adhesion promoting effect (cell adhesion rate against that without addition of polypeptide as 100%)” value was “lowered activity as compared to that of polypeptide before pyro-modification”.

The values above are taken from patent US8518412B2, “Partial peptide of lacritin” (Senju Pharmaceutical Co, Ltd., priority 2009, dated 2013).
